Laboratory results as given in patent US6281355A, “Nitrogen-containing tetracyclic compounds” (Taisho Pharmaceutical Co., Ltd., priority 1997, dated 2001).

Biological target: T1, mitochondrial diazepam binding inhibitor receptor (MDR) (Rattus norvegicus, UniProt P16257)
T1 construct: Crude mitochondria fractions prepared from rat cerebral cortex were used as a receptor sample; from tissue; host or cells: rat cerebral cortex, crude mitochondria fraction
Test: MDR Receptor Binding Assay ([3H]PK11195 binding to crude mitochondria fraction of rat cerebral cortex)
Conditions: inhibition of [3H]PK11195 (2 nM) binding; rat cerebral cortex crude mitochondria 1.0 mg protein/ml; 4° C., 90 minutes; non-specific: 10 μM PK11195
Protocol: Experiment [MDR Receptor Binding Assay]
Crude mitochondria fractions prepared from rat cerebral cortex were used as a receptor sample, and [^3 H]PK11195 was used as a [^3 H]-labeled ligand.
A binding assay using the [^3 H]-labeled ligand was carried out according to the following method as described in Journal of Pharmacology and Experimental Therapeutics, 262, 971(1992).
Preparation of Receptor Sample: Rat cerebral cortex was homogenized using a Teflon-coated homogenizer in a 10 mM HEPES buffer (pH 7.4) containing 0.32 M sucrose in ten volumes of the wet weight. The homogenate was centrifuged at 900× g for 10 minutes, and the resulting supernatant was centrifuged at 9,000× g for 10 minutes. The precipitate was suspended in a HEPES buffer to give a protein concentration of 1 mg/ml, and centrifuged at 12,000× g for 10 minutes. The resulting precipitate was suspended in a 50 mM HEPES buffer (pH 7.4) to give a crude mitochondria fraction.
MDR Binding Assay: Mitochondria sample (1.0 mg protein/ml), [^3 H]PK11195 (2 nM) and the test drug were reacted at 4° C. for 90 minutes.
After completion of the reaction, the reaction mixture was filtered with suction through a glass filter (GF/B) treated with 0.3% polyethyleneimine,and the radioactivity on the filter was measured by a liquid scintillation spectrometer.
The binding at the reaction in the presence of 10 μM PK11195 was defined as non-specific binding of [^3 H]PK11195, and the difference between total binding and non-specific binding was defined as specific binding.

T1 sequence (P16257 whole entry): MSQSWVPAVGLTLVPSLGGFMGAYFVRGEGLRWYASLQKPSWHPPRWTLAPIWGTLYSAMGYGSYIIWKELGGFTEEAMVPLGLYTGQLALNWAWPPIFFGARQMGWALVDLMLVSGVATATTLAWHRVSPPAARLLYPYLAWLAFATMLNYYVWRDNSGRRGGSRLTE

Row | Compound | IC50
1 | CCCCCCN(CCCCCC)C(=O)C1c2c([nH]c3ccccc23)-c2ccccc2N1C=O (stereo not drawn) [Compound 27] | 35.1 nM
2 | CCCCCCN(CCCCCC)C(=O)C1Cc2ccccc2-c2nc3ccccc3n21 (stereo not drawn) [Compound 26, N,N-dihexyl-5,6-dihydro-benzo[4,5]imidazo[2,1-a]isoquinoline-6-carboxamide] | 42.3 nM
3 | CCCCCCN(CCCCCC)C(=O)C1Sc2ccccc2-c2[nH]c3ccc(F)cc3c21 (stereo not drawn) [Compound 09] | 13.8 nM
4 | CCCN(CCC)C(=O)C1Cc2ccccc2-c2nc3ccccc3n21 (stereo not drawn) [Compound 25] | 73.9 nM
5 | CCCCCCN(CCCCCC)C(=O)C1Sc2ccccc2-c2[nH]c3ccccc3c21 (single isomer, unassigned; (-)) [Compound 07, (-)-N,N-Dihexyl-6,11-dihydro-5-thia-11-aza-benzo[a]fluoren-6-carboxamide] | 42.3 nM
6 | CCCCCCN(CCCCCC)C(=O)C1Sc2ccccc2-c2[nH]c3ccccc3c21 (racemic) [Compound 06, N,N-Dihexyl-6,11-dihydro-5-thia-11-aza-benzo[a]fluoren-6-carboxamide] | 3.76 nM
7 | CCCCCCN(CCCCCC)C(=O)C1Sc2ccccc2-c2[nH]c3c(F)cc(F)cc3c21 (stereo not drawn) [Compound 12] | 22.1 nM
8 | CCCCCCN(CCCCCC)C(=O)C1Sc2ccccc2-c2[nH]c3ccccc3c21 (single isomer, unassigned; (+)) [Compound 08, (+)-N,N-Dihexyl-6,11-dihydro-5-thia-11-aza-benzo[a]fluoren-6-carboxamide] | 2.15 nM
9 | CCCCCCN(CCCCCC)C(=O)C1Sc2ccccc2-c2[nH]c3ccc(C)cc3c21 (stereo not drawn) [Compound 11] | 13.9 nM
10 | CN(C)C(=O)C1Sc2ccccc2-c2[nH]c3ccccc3c21 (stereo not drawn) [Compound 03] | 38.5 nM
11 | COCCN(CCOC)C(=O)C1Sc2ccccc2-c2[nH]c3ccccc3c21 (stereo not drawn) [Compound 15] | 4.98 nM
12 | CCCNC(=O)C1Sc2ccccc2-c2[nH]c3ccccc3c21 (stereo not drawn) [Compound 02] | 55.9 nM
13 | CCCCCCN(CCCCCC)C(=O)C1Sc2ccccc2-c2[nH]c3ccc(Cl)cc3c21 (stereo not drawn) [Compound 10] | 20.1 nM
14 | CCCCCCN(CCCCCC)C(=O)C1c2c([nH]c3ccccc23)-c2ccccc2N1C(C)=O (stereo not drawn) [Compound 28] | 12.6 nM

The next molecules have a lower IC50 than those just listed; values first:

Row | IC50 | Compound
15 | 1.35 nM | CCCCCCN(CCCCCC)C(=O)C1Sc2ccccc2-c2c1c1ccccc1n2C (stereo not drawn) [Compound 16, N,N-Dihexyl-6,11-dihydro-11-methyl-5-thia-11-aza-benzo[a]fluoren-6-carboxamide]
16 | 1.35 nM | CCCCCCN(CCCCCC)C(=O)C1Cc2ccccc2-c2[nH]c3ccccc3c21 (stereo not drawn) [Compound 23]
17 | 1.35 nM | CCCCCCN(CCOCCC)C(=O)C1Sc2ccccc2-c2[nH]c3ccccc3c21 (stereo not drawn) [Compound 14]
18 | 1.23 nM | CCCCCCN(CCCCCC)C(=O)C1c2c([nH]c3ccccc23)-c2ccccc2S1(=O)=O (stereo not drawn) [Compound 22]
19 | 1.12 nM | CCCN(CCC)C(=O)C1c2c([nH]c3ccccc23)-c2ccccc2S1(=O)=O (stereo not drawn) [Compound 21, N,N-dipropyl-6,11-dihydro-5-thia-11-aza-benzo[a]fluoren-6-carboxamide 5,5-dioxide]
20 | 0.443 nM | CCN(CC)C(=O)C1Sc2ccccc2-c2[nH]c3ccccc3c21 (stereo not drawn) [Compound 04]
21 | 0.368 nM | CCCN(CCC)C(=O)C1Sc2ccccc2-c2[nH]c3ccccc3c21 (stereo not drawn) [Compound 05, N,N-dipropyl-6,11-dihydro-5-thia-11-aza-benzo[a]fluoren-6-carboxamide]
